Data as given in PubChem BioAssay (NCI).
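Abbreviation: GI50, concentration required for 50% inhibition of growth. TGI marks complete inhibition of growth.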

Columns and labels:
Test in all cases: NCI tumour cell line growth inhibition, 384-well format
[1] = system: MALME-3M melanoma
[2] = system: NCI/ADR-RES ovarian
[3] = system: NCI-H522 lung
[4] = system: T-47D breast
[5] = system: SR leukemia
[6] = system: A549 NSCLC
[7] = system: 786-0 renal
[8] = system: MDA-MB-468 breast
[9] = system: CAKI-1 renal
[10] = system: TK-10 renal
[11] = system: COLO 205 colon
[12] = system: SK-MEL-2 melanoma
[13] = system: CCRF-CEM leukemia
[14] = system: SK-OV-3 ovarian
[15] = system: NCI-H460 NSCLC
[16] = system: OVCAR-3 ovarian
[17] = system: EKVX NSCLC
[18] = system: NCI-H322M lung
[19] = system: A498 renal
[20] = system: HT29 colon
[21] = system: ACHN renal
[22] = system: SK-MEL-28 melanoma
[23] = system: NCI-H226 lung
[24] = system: U251 glioblastoma
[25] = system: RPMI-8226 leukemia
[26] = system: RXF 393 renal
[27] = system: SK-MEL-5 melanoma
[28] = system: HL-60(TB) leukemia
[29] = system: BT-549 breast
[30] = system: IGROV1 ovarian
[31] = system: UACC-62 melanoma
[32] = system: MDA-MB-435 melanoma
[33] = system: HCC-2998 colon
[34] = system: SNB-75 CNS
[35] = system: HCT-15 colon
[36] = system: NCI-H23 lung
[37] = system: HOP-62 NSCLC
[38] = system: OVCAR-8 ovarian
[39] = system: SW-620 colon
[40] = system: MOLT-4 leukemia
[41] = system: HOP-92 NSCLC
[42] = system: UACC-257 melanoma
[43] = system: OVCAR-5 ovarian
[44] = system: OVCAR-4 ovarian
[45] = system: SF-295 CNS
[46] = system: SF-539 CNS
[47] = system: K-562 leukemia
[48] = system: UO-31 renal
[49] = system: HCT-116 colon
[50] = system: LOX IMVI melanoma
[51] = system: MCF7 breast
[52] = system: SF-268 CNS
[53] = system: DU-145 prostate
[54] = system: M14 melanoma
[55] = system: PC-3 prostate
[56] = system: SN12C renal
[57] = system: MDA-MB-231 breast
[58] = system: KM12 colon
[59] = system: SNB-19 CNS
[60] = system: HS 578T breast

CC(C)(C)C[C@H]1N[C@@H](C(=O)NC2CCC(O)CC2)[C@H](c2cccc(Cl)c2F)[C@@]12C(=O)Nc1cc(Cl)ccc12 (some centres not stated)
GI50 [1]: 0.229 µM
TGI [1]: 5.03 µM
GI50 [2]: 17.5 µM
TGI [2]: 31.4 µM
GI50 [3]: 3.32 µM
TGI [3]: 10.1 µM
GI50 [4]: 8.29 µM
TGI [4]: 20.8 µM
GI50 [5]: 0.0271 µM
TGI [5]: 99.6 nM
GI50 [6]: 500 nM
TGI [6]: 11.9 µM
GI50 [7]: 8.2 µM
TGI [7]: 21.1 µM
GI50 [8]: 2.27 µM
TGI [8]: 9.06 µM
GI50 [9]: 0.195 µM
TGI [9]: 10.8 µM
GI50 [10]: 8.04 µM
TGI [10]: 20.8 µM
GI50 [11]: 11.7 µM
TGI [11]: 24.1 µM
GI50 [12]: 4.41 µM
TGI [12]: 14.6 µM
GI50 [13]: 3.25 µM
TGI [13]: 10.6 µM
GI50 [14]: 14.6 µM
TGI [14]: 27.9 µM
GI50 [15]: 1710 nM
TGI [15]: 14.9 µM
GI50 [16]: 6.74 µM
TGI [16]: 19.2 µM
GI50 [17]: 8.97 µM
TGI [17]: 21.5 µM
GI50 [18]: 17.2 µM
TGI [18]: 31.1 µM
GI50 [19]: 0.211 µM
TGI [19]: 3.41 µM
GI50 [20]: 3.65 µM
TGI [20]: 13.4 µM
GI50 [21]: 218 nM
TGI [21]: 2530 nM
GI50 [22]: 7.87 µM
TGI [22]: 20.5 µM
GI50 [23]: 0.226 µM
TGI [23]: 1100 nM
GI50 [24]: 12.2 µM
TGI [24]: 24.7 µM
GI50 [25]: 2350 nM
TGI [25]: 4.06 µM
GI50 [26]: 2.38 µM
TGI [26]: 8.18 µM
GI50 [27]: 2.57 µM
TGI [27]: 13.1 µM
GI50 [28]: 2.21 µM
TGI [28]: 4.44 µM
GI50 [29]: 10.1 µM
TGI [29]: 23.2 µM
GI50 [30]: 6.09 µM
TGI [30]: 20.4 µM
GI50 [31]: 100 nM
TGI [31]: 1860 nM
GI50 [32]: 10.2 µM
TGI [32]: 23 µM
GI50 [33]: 9.2 µM
TGI [33]: 21.3 µM
GI50 [34]: 6.62 µM
TGI [34]: 19.2 µM
GI50 [35]: 10.7 µM
TGI [35]: 22.9 µM
GI50 [36]: 10 µM
TGI [36]: 22.5 µM
GI50 [37]: 14.7 µM
TGI [37]: 28 µM
GI50 [38]: 12.5 µM
TGI [38]: 25.1 µM
GI50 [39]: 14.7 µM
TGI [39]: 28 µM
GI50 [40]: 0.0487 µM
TGI [40]: 152 nM
GI50 [41]: 8.42 µM
TGI [41]: 21.4 µM
GI50 [42]: 556 nM
TGI [42]: 2400 nM
GI50 [43]: 13.6 µM
TGI [43]: 26.5 µM
GI50 [44]: 7.25 µM
TGI [44]: 20.3 µM
GI50 [45]: 7.09 µM
TGI [45]: 19.8 µM
GI50 [46]: 8.76 µM
TGI [46]: 22.3 µM
GI50 [47]: 4.1 µM
TGI [47]: 13.6 µM
GI50 [48]: 461 nM
TGI [48]: 2520 nM
GI50 [49]: 304 nM
TGI [49]: 11.7 µM
GI50 [50]: 366 nM
TGI [50]: 15.8 µM
GI50 [51]: 318 nM
TGI [51]: 7.21 µM
GI50 [52]: 13.6 µM
TGI [52]: 26.5 µM
GI50 [53]: 13 µM
TGI [53]: 25.8 µM
GI50 [54]: 5.59 µM
TGI [54]: 20.3 µM
GI50 [55]: 7.04 µM
TGI [55]: 18.7 µM
GI50 [56]: 14 µM
TGI [56]: 27.2 µM
GI50 [57]: 9.89 µM
TGI [57]: 22.3 µM
GI50 [58]: 2150 nM
TGI [58]: 16.2 µM
GI50 [59]: 14.1 µM
TGI [59]: 27.2 µM
GI50 [60]: 3.21 µM
TGI [60]: 11.9 µM

O=c1[nH]c(C2CCCN2)nc2c1oc1ccc(Cl)cc12 (configuration not stated)
GI50 [1]: 14.8 µM
TGI [1]: > 100 µM
GI50 [2]: > 100 µM
TGI [2]: > 100 µM
GI50 [3]: 14.4 µM
TGI [3]: 31 µM
GI50 [4]: 19 µM
TGI [4]: 35 µM
GI50 [5]: 37.3 µM
TGI [5]: > 100000 nM
GI50 [6]: > 100000 nM
TGI [6]: > 100 µM
GI50 [7]: > 100 µM
TGI [7]: > 100 µM
GI50 [8]: 21.2 µM
TGI [8]: 56.7 µM
GI50 [9]: 57 µM
TGI [9]: > 100 µM
GI50 [10]: > 100 µM
TGI [10]: > 100 µM
GI50 [11]: 31.2 µM
TGI [11]: 83 µM
GI50 [12]: > 100 µM
TGI [12]: > 100 µM
GI50 [13]: 18.2 µM
TGI [13]: 37.8 µM
GI50 [14]: > 100 µM
TGI [14]: > 100 µM
GI50 [15]: > 100000 nM
TGI [15]: > 100 µM
GI50 [16]: > 100 µM
TGI [16]: > 100 µM
GI50 [17]: 85 µM
TGI [17]: > 100 µM
GI50 [18]: > 100 µM
TGI [18]: > 100 µM
GI50 [19]: 58.5 µM
TGI [19]: > 100 µM
GI50 [20]: > 100 µM
TGI [20]: > 100 µM
GI50 [21]: > 100000 nM
TGI [21]: > 100000 nM
GI50 [22]: > 100 µM
TGI [22]: > 100 µM
GI50 [23]: 49.5 µM
TGI [23]: > 100000 nM
GI50 [24]: > 100 µM
TGI [24]: > 100 µM
GI50 [25]: > 100000 nM
TGI [25]: > 100 µM
GI50 [26]: 21 µM
TGI [26]: 43.1 µM
GI50 [27]: 36.2 µM
TGI [27]: > 100 µM
GI50 [28]: 29.8 µM
TGI [28]: > 100 µM
GI50 [29]: 29.3 µM
TGI [29]: 78.4 µM
GI50 [30]: > 100 µM
TGI [30]: > 100 µM
GI50 [31]: > 100000 nM
TGI [31]: > 100000 nM
GI50 [32]: > 100 µM
TGI [32]: > 100 µM
GI50 [33]: > 100 µM
TGI [33]: > 100 µM
GI50 [34]: 38.1 µM
TGI [34]: > 100 µM
GI50 [35]: > 100 µM
TGI [35]: > 100 µM
GI50 [36]: > 100 µM
TGI [36]: > 100 µM
GI50 [37]: > 100 µM
TGI [37]: > 100 µM
GI50 [38]: > 100 µM
TGI [38]: > 100 µM
GI50 [39]: > 100 µM
TGI [39]: > 100 µM
GI50 [40]: 31 µM
TGI [40]: > 100000 nM
GI50 [41]: 65.3 µM
TGI [41]: > 100 µM
GI50 [42]: > 100000 nM
TGI [42]: > 100000 nM
GI50 [43]: > 100 µM
TGI [43]: > 100 µM
GI50 [44]: 81.8 µM
TGI [44]: > 100 µM
GI50 [45]: > 100 µM
TGI [45]: > 100 µM
GI50 [46]: 53.6 µM
TGI [46]: > 100 µM
GI50 [51]: > 100000 nM
TGI [51]: > 100 µM
GI50 [52]: > 100 µM
TGI [52]: > 100 µM
GI50 [53]: > 100 µM
TGI [53]: > 100 µM
GI50 [54]: 62.8 µM
TGI [54]: > 100 µM
GI50 [55]: > 100 µM
TGI [55]: > 100 µM
GI50 [56]: > 100 µM
TGI [56]: > 100 µM
GI50 [57]: 99.5 µM
TGI [57]: > 100 µM
GI50 [58]: > 100000 nM
TGI [58]: > 100 µM
GI50 [59]: > 100 µM
TGI [59]: > 100 µM
GI50 [60]: > 100 µM
TGI [60]: > 100 µM
